Assay type in all cases: biochemical
The target in assay [1] is Recombinant human Syk (amino acids 342-635), GST-Syk kinase fusion protein (Homo sapiens (Human), UniProt P43405). The assay is described as follows: Syk kinase test (Kinase Glo luminescence). To be noted: Table 1; read-out: SYK-inhibition IC50-value. On the procedure: (§1) The output file of the reader is a csv file that contains the well number and measured relative light units (RLU). For data evaluation and calculation, the measurement of the negative control was set as 100% ctrl and the measurement of the positive control was set as 0% ctrl. Based on this values the % value for the measurement of each substance concentration was calculated using an Assay Explorer software (Accelrys). Normally, the % ctrl values calculated are between 0% and 100% values but may also occur outside these limits in individual cases based on variability or compound characteristics. The IC50 values were calculated from the % ctrl values using Assay Explorer software. Calculation:[y=(a−d)/(1+(x/c)^b)+d] a=low value, d=high value; x=conc M; c=IC50 M; b=hill; y=% ctrl.
Background: In Kinase-Glo more light means more ATP remaining.

Assay [2] concerns the target Recombinant human Aurora B (amino acids 1-344) (Homo sapiens (Human), UniProt Q96GD4). The assay is described as follows: Aurora B kinase test (ADP Glo luminescence). To be noted: Table 1; read-out: AURB-inhibition IC50-value. On the procedure:
The activity of the Aurora B kinase protein was determined using the ADP Glo® Luminescence Kinase test (Promega; V9103X).
Serial Dilution is done in 1:10 steps in 100% DMSO.
Then 20 μl Kinase detection mix (Detection Buffer #V913B Promega; Kinase Detection Substrate #V914B Promega) were added and incubated for 40 minutes at room temperature.
as §1, with “measured RLU.” for “measured relative light units (RLU).”, “as 0%” for “as 100%”, “as 100%” for “as 0%”, “software. Calculation: [y=(a−d)/(1+(x/c)^b)+d],” for “software. Calculation:[y=(a−d)/(1+(x/c)^b)+d]”
A general note: ADP-Glo first removes unused ATP, then detects ADP through luciferase.

A further assay addresses FLT3 (Homo sapiens (Human), UniProt P36888). In words: FLT3 kinase test (Z'-LYTE). To be noted: Table 1; read-out: FLT3-inhibition IC50-value. On the procedure: The activity of FLT3 is measured using the Z′-LYTETM assay technology from Invitrogen (#PV3191)
The reaction is started by addition of 2.5 μl of the 4×ATP solution.
Positive controls are reaction mixtures containing no test compound; negative controls (blanks) are reaction mixtures containing no kinase. As a further control, the phosphopeptide solution is added to wells without kinase (=100% phosphorylation control).
The reaction is performed for 1 h at room temperature before 5 μl of the development solution is added. After a further incubation for 1 h at room temperature 5 μl of the stop reagent is added.
The output text file is evaluated in an “MS-Excel—VB-Makro” and “GraphPadPrism” (Version 5) (GraphPad Software Inc.) is used to calculate the results. Data for the inhibition of FLT3 are reported in M. data for the inhibition of the protease are reported in % CTL.

IC50 data for 10 molecules are collected here from patent US9914735B2, “Heteroaryl Syk inhibitors” (Boehringer Ingelheim International GmbH, priority 2014, dated 2018).

FLT3, sequence (P36888 27-993): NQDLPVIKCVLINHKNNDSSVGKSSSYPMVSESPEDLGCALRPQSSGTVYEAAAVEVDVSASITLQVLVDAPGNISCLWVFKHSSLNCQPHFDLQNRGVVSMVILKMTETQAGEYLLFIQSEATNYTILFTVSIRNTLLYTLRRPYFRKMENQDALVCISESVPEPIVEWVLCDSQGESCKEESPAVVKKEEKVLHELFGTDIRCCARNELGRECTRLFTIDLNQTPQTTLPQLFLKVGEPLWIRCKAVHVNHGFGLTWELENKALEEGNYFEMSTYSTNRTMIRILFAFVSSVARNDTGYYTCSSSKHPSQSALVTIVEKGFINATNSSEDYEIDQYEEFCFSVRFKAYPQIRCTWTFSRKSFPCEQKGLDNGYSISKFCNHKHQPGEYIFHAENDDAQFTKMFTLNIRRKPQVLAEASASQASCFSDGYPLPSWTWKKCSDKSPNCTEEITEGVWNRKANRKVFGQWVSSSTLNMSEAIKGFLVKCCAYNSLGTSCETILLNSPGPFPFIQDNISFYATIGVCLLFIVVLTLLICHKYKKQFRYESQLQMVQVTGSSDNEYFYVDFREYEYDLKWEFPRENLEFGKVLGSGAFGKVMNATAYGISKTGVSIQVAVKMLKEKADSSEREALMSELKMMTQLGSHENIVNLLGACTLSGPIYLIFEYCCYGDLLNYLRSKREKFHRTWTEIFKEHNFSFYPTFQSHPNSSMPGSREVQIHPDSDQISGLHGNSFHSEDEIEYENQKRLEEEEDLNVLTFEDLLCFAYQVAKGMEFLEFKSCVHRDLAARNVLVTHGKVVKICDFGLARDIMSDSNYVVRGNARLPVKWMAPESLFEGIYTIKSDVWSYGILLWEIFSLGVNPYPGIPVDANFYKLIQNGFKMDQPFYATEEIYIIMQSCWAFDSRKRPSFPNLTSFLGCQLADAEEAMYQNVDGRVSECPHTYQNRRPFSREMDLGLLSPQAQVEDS
Recombinant human Aurora B (amino acids 1-344), sequence (Q96GD4 whole entry, the tested form may be a part): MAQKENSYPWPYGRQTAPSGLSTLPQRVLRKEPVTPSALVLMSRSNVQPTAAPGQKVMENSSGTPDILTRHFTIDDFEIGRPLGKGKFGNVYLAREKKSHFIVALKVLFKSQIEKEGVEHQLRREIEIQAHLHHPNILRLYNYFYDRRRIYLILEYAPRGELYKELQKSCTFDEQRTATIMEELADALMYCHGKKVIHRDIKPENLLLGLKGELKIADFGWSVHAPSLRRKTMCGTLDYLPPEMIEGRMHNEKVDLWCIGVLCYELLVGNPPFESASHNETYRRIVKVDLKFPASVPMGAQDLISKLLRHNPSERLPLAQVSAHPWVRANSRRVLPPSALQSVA

For `C[C@@H](Oc1nc(-c2ccc3c(c2)CCN(C)CC3)cc2nn(C)cc12)[C@H]1CNC(=O)C1` [Example 55, (4R)-4-[(1R)-1-[2-methyl-6-(3-methyl-1,2,4,5-tetrahydro-3-benzazepin-7-yl)pyrazolo-[4,3-c]pyridin-4-yl]oxyethyl]-pyrrolidin-2-one], the half-inhibitory concentration (IC50) (in general, the point on the concentration scale where inhibition reaches its midpoint) in assay [1] was 0.0436 µM; in assay [2], above 50 µM; at FLT3 it was 3.07 µM.
On the same counts, the results for `COCCn1cc(-c2cc3nn(C)cc3c(O[C@H](C)[C@H]3CNC(=O)C3)n2)cn1` [Example 57, (4R)-4-[(1R)-1-[6-[1-(2-methoxyethyl)pyrazol-4-yl]-2-methyl-pyrazolo[4,3-c]pyridin-4-yl]oxyethyl]pyrrolidin-2-one] are 0.0901 µM, above 50 µM and 32 µM.
The corresponding values for `CCn1cc(-c2cc3nn(C)cc3c(O[C@H](C)[C@H]3CNC(=O)C3)n2)cn1` [Example 58, (4R)-4-[(1R)-1-[6-(1-ethylpyrazol-4-yl)-2-methyl-pyrazolo[4,3-c]pyridin-4-yl]oxyethyl]pyrrolidin-2-one] are 0.0366 µM, above 50 µM and 17.1 µM.
The corresponding values for `C[C@@H](Oc1nc(-c2ccc(C(F)(F)F)cc2)cc2nn(C)cc12)[C@H]1CNC(=O)C1` [Example 60, (4R)-4-[(1R)-1-[2-methyl-6-[4-(trifluoromethyl)phenyl]-pyrazolo[4,3-c]pyridin-4-yl]-oxyethyl]pyrrolidin-2-one] are 0.145 µM, 34.7 µM and 9.75 µM.
For the molecule `C[C@@H](Oc1nc(-c2cnn(C)c2)cc2nn(C)cc12)[C@H]1CNC(=O)C1` [Example 63, (4R)-4-[(1R)-1-[2-methyl-6-(1-methylpyrazol-4-yl)pyrazolo[4,3-c]pyridin-4-yl]oxyethyl]pyrrolidin-2-one], the half-inhibitory concentration (IC50) was 0.0473 µM in assay [1], above 50 µM in assay [2] and 13.2 µM on FLT3.
The corresponding values for `C[C@@H](Oc1nc(-c2cnn(C3CCOCC3)c2)cc2nn(C)cc12)[C@H]1CNC(=O)C1` [Example 64, (4R)-4-[(1R)-1-[2-methyl-6-(1-tetrahydropyran-4-yl-pyrazol-4-yl)pyrazolo[4,3-c]pyridin-4-yl]oxyethyl]-pyrrolidin-2-one] are 0.0258 µM, above 50 µM and 21.6 µM.
On the same counts, the results for `CC(C)n1cc(-c2cc3nn(C)cc3c(O[C@H](C)[C@H]3CNC(=O)C3)n2)cn1` [Example 65, (4R)-4-[(1R)-1-[6-(1-iso-propylpyrazol-4-yl)-2-methyl-pyrazolo[4,3-c]pyridin-4-yl]-oxyethyl]pyrrolidin-2-one] are 0.0211 µM, above 50 µM and 14.8 µM.
As to `C[C@@H](Oc1nc(-c2ccc(N3CCOCC3)nc2)cc2nn(C)cc12)[C@H]1CNC(=O)C1` [Example 66, (4R)-4-[(1R)-1-[2-methyl-6-(6-morpholino-3-pyridyl)-pyrazolo[4,3-c]pyridin-4-yl]oxyethyl]pyrrolidin-2-one], the IC50 in assay [1] was 0.0385 µM; in assay [2], above 50 µM; at FLT3 it was 4.44 µM.
On the same counts, the results for `Cc1nn(C)cc1-c1cc2nn(C)cc2c(O[C@H](C)[C@H]2CNC(=O)C2)n1` [Example 68, (4R)-4-[(1R)-1-[6-(1,3-dimethylpyrazol-4-yl)-2-methyl-pyrazolo[4,3-c]pyridin-4-yl]oxyethyl]pyrrolidin-2-one] are 0.0652 µM, above 50 µM and 22.4 µM.
Consider `Cc1c(-c2cc3nn(C)cc3c(O[C@H](C)[C@H]3CNC(=O)C3)n2)cnn1C` [Example 69, (4R)-4-[(1R)-1-[6-(1,5-dimethylpyrazol-4-yl)-2-methyl-pyrazolo[4,3-c]pyridin-4-yl]oxyethyl]pyrrolidin-2-one], for which the IC50 in assay [1] was 0.197 µM; in assay [2], above 50 µM; on FLT3 it was 45.1 µM.
